# Source: patent US8546579B2, “Bicycloheteroaryl compounds as P2X7 modulators and uses thereof” (Evotec (US) Inc., priority 2006, dated 2013)
# Target: T1, P2X7 receptor (Homo sapiens, UniProt Q99572)
# T1 construct: host or cells: THP-1 cells differentiated with LPS and IFN-γ
# T1 sequence (Q99572 1-595): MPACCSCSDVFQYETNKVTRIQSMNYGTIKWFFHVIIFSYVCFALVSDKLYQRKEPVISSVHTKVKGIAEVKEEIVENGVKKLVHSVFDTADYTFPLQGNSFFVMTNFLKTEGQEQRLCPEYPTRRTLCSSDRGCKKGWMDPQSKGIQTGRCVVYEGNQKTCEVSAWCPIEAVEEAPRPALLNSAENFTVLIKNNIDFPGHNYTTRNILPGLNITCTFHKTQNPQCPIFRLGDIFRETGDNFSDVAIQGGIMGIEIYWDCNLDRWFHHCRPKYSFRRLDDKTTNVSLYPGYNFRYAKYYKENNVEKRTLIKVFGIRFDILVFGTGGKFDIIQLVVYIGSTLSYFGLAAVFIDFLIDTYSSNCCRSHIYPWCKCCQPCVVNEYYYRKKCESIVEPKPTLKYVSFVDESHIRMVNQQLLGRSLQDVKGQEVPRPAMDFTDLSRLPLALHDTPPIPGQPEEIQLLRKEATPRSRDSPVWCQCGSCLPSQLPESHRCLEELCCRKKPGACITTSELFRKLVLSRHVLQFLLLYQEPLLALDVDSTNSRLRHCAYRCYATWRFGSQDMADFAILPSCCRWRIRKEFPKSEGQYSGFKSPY
# Experiment: IL-1β release assay in differentiated THP-1 cells stimulated with BzATP (Example 9)
# Type: cell-based
# Set-up: inhibition: dose or concentration left out as unconfirmed
# Settings: 0.1 μM compound; differentiated THP-1 cells, BzATP 250 uM; "*" class symbols; read-out: IL-1β % Inhib. ("*" symbols: at 0.1 μM)
# Outline: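 THP-1 cells differentiated 16 h with LPS and IFN-γ (100 ng/mL each), re-primed 2 h with LPS, then compound-pretreated 30 min before 250 uM BzATP for 45 min. Supernatant IL-1β quantified by ELISA; background-adjusted percent inhibition fitted to four-parameter logistic for IC50.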
row,SMILES,inhibition at 0.1 µM
1,Cc1cccc(C(=O)Nc2cccc3c(=O)n(Cc4ccc(OC(F)(F)F)cc4)ccc23)c1Cl [Compound 1607],0 to 25%

# Same assay, conditions: 0.1 μM compound; differentiated THP-1 cells, BzATP 250 uM; symbols * to ****; read-out: IL-1β % Inhib. (asterisk symbols: at 0.1 μM)
row,SMILES,inhibition at 0.1 µM
1,O=C(Cc1cccc2ccccc12)Nc1cccc2c(=O)n(Cc3cccnc3)ccc12 [Compound 1350],0 to 25%
2,Cc1cccc(C(=O)Nc2cccc3c(=O)n(CC(C)(C)C)ccc23)c1 [Compound 1246],0 to 25%

# Same assay, conditions: 0.3 μM compound; differentiated THP-1 cells, BzATP 250 uM; '+' class symbols; read-out: IL-1β % Inhib. @ 0.3 μM
row,SMILES,inhibition at 0.3 µM
1,Cc1cccc(CC(=O)Nc2cccc3c(=O)n(CCN(C)C)ccc23)c1 [Compound 1159],0 to 25%
2,Cc1ccc(C)c(CC(=O)Nc2cccc3c(=O)n(Cc4cccnc4)ccc23)c1 [Compound 1077],0 to 25%
3,COc1cccc(CC(=O)Nc2cccc3c(=O)n(CC4CCOCC4)ccc23)c1 [Compound 1102],0 to 25%
4,CN(C)CCn1ccc2c(NC(=O)c3cc4cc(Cl)ccc4o3)cccc2c1=O [Compound 1182],0 to 25%
5,COc1ccc(CC(=O)Nc2cccc3c(=O)n(CC4CCOCC4)ccc23)c(OC)c1 [Compound 1123],0 to 25%
6,O=C(Nc1cccc2c(=O)n(CC3CCOCC3)ccc12)c1ccc2ccccc2c1 [Compound 1098],0 to 25%
7,CN(C)CCn1ccc2c(NC(=O)CCCc3ccccc3)cccc2c1=O [Compound 1161],0 to 25%
8,O=C(Nc1cccc2c(=O)n(CC3CCOCC3)ccc12)c1cccc2c1OCCO2 [Compound 1117],0 to 25%

# Same assay, conditions: 0.3 μM compound; differentiated THP-1 cells, BzATP 250 uM; symbols + to ++++; read-out: IL-1β % Inhib. @ 0.3 μM
row,SMILES,inhibition at 0.3 µM
1,COc1ccc(CC(=O)Nc2cccc3c(=O)n(CC(C)(C)C)ccc23)cc1C [Compound 1281],26 to 50%
2,Cn1ccc2c(NC(=O)CC3CC4CC[C@H]3C4)cccc2c1=O (some centres unmarked) [Compound 1302],0 to 25%
3,Cn1ccc2c(NC(=O)Cc3ccccc3F)cccc2c1=O [Compound 1294],0 to 25%
4,COc1c(C)cc(C(=O)Nc2cccc3c(=O)n(Cc4cccnc4)ccc23)cc1C [Compound 1361],0 to 25%
5,CC(C)(C)Cn1ccc2c(NC(=O)c3cccc4c3OCCO4)cccc2c1=O [Compound 1272],0 to 25%
6,COCCn1ccc2c(NC(=O)Cc3ccc(OC)cc3OC)cccc2c1=O [Compound 1333],0 to 25%
7,COc1ccc(CCC(=O)Nc2cccc3c(=O)n(C)ccc23)cc1 [Compound 1293],0 to 25%
8,CC(C)Cc1ccc(C(=O)Nc2cccc3c(=O)n(CC(C)(C)C)ccc23)cc1 [Compound 1288],0 to 25%

# Same assay, conditions: THP-1; read-out: IL-1β % Inhib.
row,SMILES,inhibition
1,C[C@H]1CC[C@H](C(=O)Nc2cccc3c(=O)n(Cc4ccc(OC(F)(F)F)cc4)ccc23)CC1 [Compound 1549],0 to 25%
2,Cc1ccc(C(=O)Nc2cccc3c(=O)n(CC4CCN(C)CC4)ccc23)c(C)c1 [Compound 1462],0 to 25%
3,COc1ccc(C(=O)Nc2cccc3c(=O)n(CCCN4CCCC4=O)ccc23)cc1C [Compound 1545],0 to 25%
4,COc1cc(CC(=O)Nc2cccc3c(=O)n(CCCN4CCCC4=O)ccc23)cc(OC)c1 [Compound 1528],0 to 25%
5,Cc1ccc(C(=O)Nc2cccc3c(=O)n(CCCN4CCCC4=O)ccc23)cc1Cl [Compound 1530],26 to 50%
6,O=C1CCCN1CCCn1ccc2c(NC(=O)[C@@]34C[C@@H]5C[C@@H](C[C@@H]3C5)C4)cccc2c1=O [Compound 1532],0 to 25%
7,Cc1cccc(C(=O)Nc2cccc3c(=O)n(CC4CCN(C)CC4)ccc23)c1 [Compound 1465],0 to 25%
8,Cc1ccc(C)c(CC(=O)Nc2cccc3c(=O)n(CCN(C)C)ccc23)c1 [Compound 1401],0 to 25%
9,COCCn1ccc2c(NC(=O)Cc3ccccc3F)cccc2c1=O [Compound 1435],0 to 25%
10,Cc1ccccc1C(=O)Nc1cccc2c(=O)n(CCCN3CCCC3=O)ccc12 [Compound 1507],0 to 25%
